Source: US20020016443A1, “Antiproliferative factor” (priority 1996, published 2002)

System: APF activity on primary normal bladder epithelial cells
Assay: Blocking of APF antiproliferative activity by recombinant growth factors (^3H-thymidine incorporation)
Type: cell-based, human
Conditions: co-incubation with low molecular weight IC urine fractions; HB-EGF 10, 30 and 100 ng/ml; EGF, IGF1 up to about 12 and 25 fold normal levels
Description: ^3H-Thymidine Incorporation. Primary normal adult human bladder epithelial cells (HBE) were grown from biopsies obtained at autopsy from patients who had no history of bladder disorder. HBE cells were plated at a density of 1×10^4 cells/well onto 96 well tissue culture plates and incubated at 37° C. overnight (resulting in approximately 60% confluence the following day). The medium was then changed to MEM containing only 1% glutamine and 1% antibiotic/ antimycotic solution, and the cells were incubated at 37° C. overnight. […] Cells were then trypsinized, and insoluble cell contents harvested and methanol-fixed onto glass fiber filter paper, as previously described^62; the amount of radioactivity incorporated was determined as counts per minute using a Beckman LS 3801 scintillation counter. […]
To determine whether the antiproliferative effect of the APF on bladder epithelial cells might be due to a decrease in HB-EGF production, primary normal bladder epithelial cells were simultaneously incubated with varying levels of recombinant HB-EGF, EGF, or IGF1 and low molecular weight urine fractions from IC patients. […] This effect was evident using a concentration of HB-EGF (10 ng/ml) in the range previously determined for normal controls (2-22 ng/ml, mean 6.33 ng/ml) 12 as well as higher concentrations (30 and 100 ng/ml). […]

| Substance | inhibition of IC urine antiproliferative activity by recombinant growth factor |
| --- | --- |
| insulin-like growth factor 1 [IGF1] | insufficient to completely inhibit APF activity |
| epidermal growth factor [EGF] | insufficient to completely inhibit APF activity |
